Measured values reported in patent US20200102264A1, “MARMELIN ANALOGS AND METHODS OF USE IN CANCER TREATMENT” (THE UNIVERSITY OF KANSAS, priority 2014, published 2020).
“Also recorded” adds a separate entry of the source.

Legend:
Format in all cases: cell-based
[1] = test system: HCT116 colon cancer cells; assay: hexoseaminidase cell proliferation assay, HCT116
Excerpt: (§1) Using hexoseaminidase assay, we determined the effect of the compounds on cell proliferation. […]
(§2) Using hexoseaminidase assay, we determined the effect of the compounds on cell proliferation. […] […] […] Overall, the analogs can be used as chemotherapeutic agents against colon and pancreatic cancer.

SW480 colon cancer cells = assay: hexoseaminidase cell proliferation assay, SW480
Excerpt: as §1, §2

[2] = test system: MiaPaCa-2 pancreatic cancer cells; assay: hexoseaminidase cell proliferation assay, MiaPaCa-2
Procedure: (§3) Using hexoseaminidase assay, we determined the effect of the compounds on cell proliferation. […] The IC50 value at 48 hours is below 10 μM in all the cancer cell lines.
(§4) Using hexoseaminidase assay, we determined the effect of the compounds on cell proliferation. […] The MRL16 IC50 value at 48 hours is below 0.3 μM in Colon cancer cell lines. […] Overall, the analogs can be used as chemotherapeutic agents against colon and pancreatic cancer.

[3] = test system: PanC-1 pancreatic cancer cells; assay: hexoseaminidase cell proliferation assay, PanC-1
Procedure: as §3, §4

HCT116 cells [4] = assay: cell cycle analysis, HCT116; settings: HCT116, Table 3
SW480 cells [5] = assay: cell cycle analysis, SW480; settings: SW480, Table 3
Procedure: The analogs were tested to determine the ability induce death of colon cancer cells.

[6] = test system: colon, pancreatic and bladder cancer cells; assay: hexoseaminidase cell proliferation assay, summaries over cell lines; settings: dose and time dependent
Procedure: Water solubility studies were performed with the CD/analog complexes. […] The observed IC50 value of THBCD at 48 h is below 10 μM in all the colon, pancreatic and bladder cancer cells.
as §3, §4

HCT116 cells [7] = assay: colony formation, HCT116
SW480 cells [8] = assay: colony formation, SW480
cancer stem cells = assay: colonosphere formation
Procedure: It was also determined the analogs inhibit colonosphere formation from cancer stem cells. […] The columns are 0, 10, 25, and 50 micromolar concentrations of the compounds labeled by rows.
The effect of the compounds on colonosphere formation was determined. […] Overall, the analogs have shown they can be used as chemotherapeutic agents against colon, pancreatic and bladder cancer.

KU7 bladder cancer cells = assay: hexoseaminidase cell proliferation assay, KU7
Procedure: as §3

[9] = test system: 253JBV bladder cancer cells; assay: hexoseaminidase cell proliferation assay, 253JBV
Procedure: as §3

MiaPaCa-2 cells = assay: colony formation, MiaPaCa-2
PanC-1 cells = assay: colony formation, PanC-1

O=C(N/N=C/c1ccc(O)c(O)c1)c1cc2ccccc2cc1O [MRL DHB]
IC50 ([1]; HCT116, 24 h): > 50 µM
IC50 ([1]; HCT116, 48 h): > 50 µM
IC50 (SW480 colon cancer cells; SW480, 24 h): > 50 µM
IC50 (SW480 colon cancer cells; SW480, 48 h): > 50 µM
IC50 (SW480 colon cancer cells; SW480, 72 h): 15 µM
IC50 ([2]; MiaPaCa-2, 24 h): > 50 µM
IC50 ([2]; MiaPaCa-2, 48 h): 25 µM
IC50 ([2]; MiaPaCa-2, 72 h): 10 µM
IC50 ([2]; MiaPaCa-2, 72 h, listed as DHB): 25 µM
IC50 ([3]; PanC-1, 24 h): > 50 µM
IC50 ([3]; PanC-1, 48 h): 15 µM
IC50 ([3]; PanC-1, 48 h, listed as DHB): 10 µM
IC50 ([3]; PanC-1, 72 h): 8 µM
G0/G1 (%) (HCT116 cells [4]): 40.7%
G2M (%) (HCT116 cells [4]): 10.4%
S (%) (HCT116 cells [4]): 13.0%
SubG0 Dead Cells (%) (HCT116 cells [4]): 34.2%
G0/G1 (%) (SW480 cells [5]): 60.7%
G2M (%) (SW480 cells [5]): 18.4%
S (%) (SW480 cells [5]): 14.1%
SubG0 Dead Cells (%) (SW480 cells [5]): 6.1%
inhibition of cell proliferation (in words) [6]: potent inhibitor of proliferation of pancreatic cancer cells; also recorded: inhibit proliferation
colony formation (HCT116 cells [7]): significantly inhibited colony formation
colony formation (SW480 cells [8]): significantly inhibited colony formation
colonosphere formation (cancer stem cells): significantly inhibited colonosphere formation

O=C(N/N=C/c1ccc2ccccc2c1O)c1cc2ccccc2cc1O [NAL]
IC50 ([1]; HCT116, 24 h): 10 µM
IC50 ([1]; HCT116, 48 h): 6 µM
IC50 ([1]; HCT116, 72 h): 6 µM
IC50 (SW480 colon cancer cells; SW480, 24 h): 25 µM
IC50 (SW480 colon cancer cells; SW480, 48 h): 8 µM
IC50 (SW480 colon cancer cells; SW480, 72 h): 8 µM
IC50 ([2]; MiaPaCa-2, 24 h): 40 µM
IC50 ([2]; MiaPaCa-2, 48 h): 8 µM
IC50 ([2]; MiaPaCa-2, 72 h): 6 µM
IC50 ([3]; PanC-1, 24 h): 45 µM
IC50 ([3]; PanC-1, 48 h): 10 µM
IC50 ([3]; PanC-1, 72 h): 7 µM
IC50 (KU7 bladder cancer cells; KU7, 24 h): 10 µM
IC50 (KU7 bladder cancer cells; KU7, 48 h): 10 µM
IC50 (KU7 bladder cancer cells; KU7, 72 h): 6 µM
IC50 ([9]; 24 h): > 50 µM
IC50 ([9]; 48 h): 10 µM
IC50 ([9]; 72 h): 7 µM
inhibition of cell proliferation (in words) [6]: potent inhibitor
colony formation (HCT116 cells [7]): inhibit colony formation
colony formation (SW480 cells [8]): inhibit colony formation
colony formation (MiaPaCa-2 cells): inhibit colony formation
colony formation (PanC-1 cells): inhibit colony formation
colonosphere formation (cancer stem cells): potent inhibitors of colonosphere formation

O=C(N/N=C/c1ccccc1O)c1cc2ccccc2cc1O [SAL]
IC50 ([1]; HCT116, 24 h): 25 µM
IC50 ([1]; HCT116, 48 h): 8 µM
IC50 ([1]; HCT116, 72 h): 6 µM
IC50 (SW480 colon cancer cells; SW480, 24 h): > 50 µM
IC50 (SW480 colon cancer cells; SW480, 48 h): > 50 µM
IC50 (SW480 colon cancer cells; SW480, 72 h): 8 µM
IC50 ([2]; MiaPaCa-2, 24 h): > 50 µM
IC50 ([2]; MiaPaCa-2, 48 h): > 50 µM
IC50 ([2]; MiaPaCa-2, 72 h): 8 µM
IC50 ([3]; PanC-1, 24 h): > 50 µM
IC50 ([3]; PanC-1, 48 h): 10 µM
IC50 ([3]; PanC-1, 72 h): 8 µM
colony formation (HCT116 cells [7]): inhibit colony formation
colony formation (SW480 cells [8]): inhibit colony formation
colony formation (MiaPaCa-2 cells): inhibit colony formation
colony formation (PanC-1 cells): inhibit colony formation
colonosphere formation (cancer stem cells): potent inhibitors of colonosphere formation
